From patent US7557109B2, “Treatment for attention-deficit hyperactivity disorder” (priority 2001, dated 2009)

Key:
[1] = test system: DA and 5-HT release in dorsal striatum; assay: In vivo microdialysis of DA and 5-HT release in dorsal striatum, wild-type mice
Description: (§1) Wild-type and 5-HT1B knock out mice were implanted with microdialysis probes according to the methods of DeGroote et al., incorporated herein by reference, with the following modifications. (DeGroote et al., Eur. J. Pharmacol., 439:93-100, 2002). The dialysis probe was placed in the dorsal striatum, at coordinates AP +0.80, ML −1.7 mm from bregma, DV −4.0 mm from the dura, according to the stereotaxic atlas of the mouse brain (Franklin and Paxinos, 1997), and with the toothbar set at 0 mm. Microdialysis experiments were begun 16-20 hours after surgery, using previously described methods, which are incorporated herein by reference (DeGroote et al., 2002). After the start of the dialysis probe perfusion, mice were left undisturbed for three hours. Mice were tested in their home cage during the light period. Samples were collected every 20 minutes in vials containing 7.5 μl acetic acid and stored at −80° C. until HPLC analysis.
Release of DA and 5-HT was measured after peripheral administration of eltoprazine or intrastriatal administration of the selective 5-HT1B receptor agonist CP 93129 dihydrochloride (1,4-Dihydro-3-(1,2,3,6-tetrahydro-4-pyridinyl)-5H-pyrrolo[3,2-b]pyridin-5-one, obtained from Tocris, UK.) Drugs were dissolved in distilled water and further diluted in Ringer solution to the final concentration on the day of the experiment. 5-HT and DA were analyzed by HPLC with electrochemical detection. Samples (25 μl) were injected onto an Inertsil ODS-3 column (3 μM, 2.1×100 mm, Aurora Borealis, The Netherlands) using a Gilson pump and autosampler (Separations, The Netherlands). Separation was performed at 40° C. with the electrochemical detector (Intro, ANTEC Leyden, The Netherlands) set at a potential of 600 mV against an Ag/AgCl reference electrode. The signal was analyzed using Gynkotek software. The mobile phase consisted of 5 g/l (NH4)2SO4, 150 mg/l heptane sulphonic acid sodium salt, 0.5 g/l EDTA, 5% methanol, 30 μl/l triethylamine, 30 μl/l acetic acid, pH 4.6. Flow rate was 0.3 ml/min. The detection limit for 5-HT was 0.5 fmol/25 μl sample (signal to noise ratio 2).
(§2) Values for the first four consecutive microdialysis samples were averaged to calculate the basal levels of extracellular 5-HT and DA, uncorrected for probe recovery. Student's t-tests were used to compare basal 5-HT and DA values between the two genotypes. Effects of drug treatment were analyzed by a repeated multivariate analysis of variance (ANOVA) with time as ‘within’ and treatment (or dose) and genotype as ‘between’ factors.

[2] = test system: DA and 5-HT release in dorsal striatum; assay: In vivo microdialysis of DA and 5-HT release in dorsal striatum, 1BKO mice; set-up: species or system 5-HT1B knock out mice; conditions: local administration
Description: as §1
Release of DA and 5-HT was measured after peripheral administration of eltoprazine or intrastriatal administration of the selective 5-HT1B receptor agonist CP 93129 dihydrochloride (1,4-Dihydro-3-(1,2,3,6-tetrahydro-4-pyridinyl)-5H-pyrrolo[3,2-b]pyridin-5-one, obtained from Tocris, UK.) Drugs were dissolved in distilled water and further diluted in Ringer solution to the final concentration on the day of the experiment. 5-HT and DA were analyzed by HPLC with electrochemical detection. Samples (25 μl) were injected onto an Inertsil ODS-3 column (3 μM, 2.1×100 mm, Aurora Borealis, The Netherlands) using a Gilson pump and autosampler (Separations, The Netherlands). […] The signal was analyzed using Gynkotek software. […]
as §2, with “Student's t-tests were used to compare basal 5-HT and DA values between the two genotypes.” left out

[3] = test system: C3H mice; assay: Peak procedure (30 second reinforcement interval), C3H mice; assay type: in vivo; conditions: 0.3 to 3.0 mg/kg i.p. (FIG. 8)
Experimental: (§3) The peak procedure is a behavioral model designed to assess an animal's ability to learn an appropriate time period in which to perform a task and a time period in which the animal will be rewarded if the task is performed. The model provides information concerning excitatory and inhibitory components of behavior, as subjects must respond to perform a task when appropriate and stop responding in an “empty trial” when time for reward has elapsed and the reward has not been delivered. The task is sensitive to conditions where there is a failure in inhibitory mechanisms, such as seems to be the case for ADHD (Pliszka et al., Biol. Psychiatry, 48:238-46, 2000).
In the peak procedure, mice are trained to work for food that is delivered at the same time in each trial, but withdrawn in some unreinforced trials. Typically, the response rate increases up to a maximum around the reinforcement time, and then decreases to a low toward the end of the trial. The shape of the response rate indicates whether the animal is sensitive to the time of reinforcement. To be able to perform well in this model, the animals need to be able to learn several tasks. First, the animal must make an association between a response (lever pressing, nose poking or key pecking) and the delivery of reward. Second, the animal must be able to perceive and remember time. Third, the animal must act on its remembered time by starting and then stopping or inhibiting the response. Fourth, the animal must be able to compare the elapsed time in the trials with its remembered time to reinforcement. […] Accuracy is measured by looking at the shape of the response function; therefore, if the response function is sharper and centered on the reinforcement time it supports a conclusion that attentional processes have been heightened.
(§4) Mice were food deprived to 85-90% of their free-feeding body weight by supplementing food earned during experimental sessions with a measured amount after the session had ended. […]

[4] = test system: coloboma (Cm) mutant mice; assay type: in vivo
Description: (§5) Heterozygote coloboma mice were originally purchased from The Jackson Laboratory (Bar Harbor, Me.) and were bred and maintained in our colony. In the current study, 20 mutant mice and 25 wild-type littermates, all aged 8 to 10 weeks, were used. Animals were divided into 4 groups: mutant/drug-treatment (n=11), mutant/vehicle-control (n=9), wild-type/drug-treatment (n=13), wild-type/vehicle-control (n=12). Age and gender were balanced among groups. All animals were housed as littermates (2-4 mice per cage) and were maintained on ad libitum food and water with a 12 hr light/dark cycle.
(§6) Open-field testing was performed under normal lighting conditions. Mice were brought into the experimental room and allowed at least 1 hr of acclimatization. Thirty minutes prior to testing, animals received an ip. injection of either d-amphetamine (4 mg/kg), eltoprazine (0.5 mg/kg) or saline. The mice were then placed in the activity monitor arenas (27×27×20 cm, Med Associates). Four animals of matching genotype and treatment were tested at one time. Each testing session lasted 40 minutes, after which animals were returned to their home cages. An automated infrared beam array system measured locomotor activity (total distance traveled) and number of center entries (zone crossings).

[5] = test system: wild-type mice; assay: Open-field locomotor activity, wild-type littermates; assay type: in vivo
Description: as §5, §6

[6] = test system: C57BL/6J mice; assay: Peak procedure (30 second reinforcement interval), C57BL/6J mice; assay type: in vivo
Experimental: as §3
In the peak procedure, mice are trained to work for food that is delivered at the same time in each trial, but withdrawn in some unreinforced trials. Typically, the response rate increases up to a maximum around the reinforcement time, and then decreases to a low toward the end of the trial. […] Accuracy is measured by looking at the shape of the response function; therefore, if the response function is sharper and centered on the reinforcement time it supports a conclusion that attentional processes have been heightened.
as §4

[7] = test system: wild-type mice; assay: DRL-36s schedule after FR5 conditioning, wild-type mice; assay type: in vivo
Experimental: (§7) Experiments were conducted in eight identical mouse operant chambers (16×14×13 cm) with stainless steel grid floors (ENV-307M; Med Associates Inc., Georgia, Vt., USA) housed in sound-insulating and ventilated cubicles. Each chamber was equipped with two ultra-sensitive retractable levers, one on each side of a food cup containing photocells to register nose poke behavior and in which a pellet dispenser delivered 20 mg food pellets (Formula A/I, P.J. Noyes Company Inc., Lancaster, N.H., USA). A red house light (50 lux) was located in the center of the wall opposite to the food cup and levers. Stimulus lights were located above each lever and above the food cup. Experimental sessions were controlled and data were recorded by a computer.
(§8) Mice trained on DRL procedure first received operant conditioning. DRL-36s task was adapted from procedures used in rats (O'Donnell and Seiden, supra). Briefly, mice first learned to respond for food under a DRL 6 sec schedule, which means that mice had to wait at least 6 seconds between successive lever presses in order to obtain a food reward. Subsequently the schedule requirement was increased every session in steps of 6 sec to 36 sec (DRL 36 sec). Each session started with the illumination of the house light, the stimulus light above the food cup and the presentation of the left lever for the duration of the session. […] If the mouse presses too soon, no reinforcement is given, the clock is reset to zero, and a new 36-sec waiting period starts. In this way, the DRL-36s schedule task primarily measures waiting strategies which reflect hyperactivity-impulsivity behaviors associated with ADHD. Animals were trained until performances on the DRL 36 sec schedule had stabilized (approximately 25 sessions). All training sessions lasted 60 min and were conducted 5 days per week from Monday-Friday. The total number of lever presses (responses), the total number of reinforcements, and the inter-response times (IRT) are recorded.
Data were analyzed as described elsewhere (Richards et al., J. Exp. Anal. Behav. 60:361-385, 1993; Sabol et al., Psychopharmacology 121:57-65, 1995). The inter-response time (IRT) analysis included three measures for the characterization of DRL 36 sec IRT distributions: peak area, peak location and burst ratio. Only peak area (PkA) and peak location (PkL) are presented. The PkA measure is the area of the obtained IRT distribution of a mouse above the corresponding negative exponential, a computation based on mean of obtained IRT durations excluding the burst component of IRT<3 sec (see Richards et al., supra, for details). […] Thus, decreases in PkA indicate that the mouse's IRT distribution becomes more similar to random performance indicating loss of schedule control. PkL is calculated as the median of the area of the obtained IRT distribution above the corresponding negative exponential.
Mice were conditioned and challenged on a DRL-36s schedule according to the methods of Example 7, with the following modifications. Because 1BKO mice had difficulty learning the DRL-36s schedule following conditioning on an FR1, wild-type and 1BKO mice were conditioned on a fixed rate 5 (FR5) schedule. In FR5, instead of pressing the lever once for a reward, animals have to press 5 times. The rationale for changing the operant conditioning was that by increasing the number of responses necessary for reinforcement, the wild-type mice should have greater difficulty and the 1BKO (which have higher response rates anyway) should have less difficulty getting reinforcements.

[8] = test system: 5-HT1B knockout (1BKO) mice; assay: DRL-36s schedule after FR5 conditioning, 5-HT1B knockout mice; assay type: in vivo
Experimental: as §7, §8
Data were analyzed as described elsewhere (Richards et al., J. Exp. Anal. Behav. 60:361-385, 1993; Sabol et al., Psychopharmacology 121:57-65, 1995). The inter-response time (IRT) analysis included three measures for the characterization of DRL 36 sec IRT distributions: peak area, peak location and burst ratio. Only peak area (PkA) and peak location (PkL) are presented. The PkA measure is the area of the obtained IRT distribution of a mouse above the corresponding negative exponential, a computation based on mean of obtained IRT durations excluding the burst component of IRT<3 sec (see Richards et al., supra, for details). […] PkL is calculated as the median of the area of the obtained IRT distribution above the corresponding negative exponential. […]

[9] = test system: Cm mutant mice; conditions: Hess et al., 1996; cited from earlier work

O=c1ccc2[nH]cc(C3=CCNCC3)c2[nH]1 [CP 93129, 1,4-Dihydro-3-(1,2,3,6-tetrahydro-4-pyridinyl)-5H-pyrrolo[3,2-b]pyridin-5-one, reference compound]
DA release ([1]; 0.5 μM, local administration): unaffected
time for 5-HT release to return toward basal levels after cessation ([1]; 0.5 μM, local administration): ≤ 40 min
5-HT level as compared to vehicle ([1]; 0.5 μM, local administration through probe): 51±9%
increase in DA levels ([1]; 50 μM, local administration, compared to vehicle): 525±79%
5-HT release ([2]; 0.5 μM): did not decrease 5-HT release
striatal release of DA ([2]; 0.5 μM): similarly unaffected
increase in DA levels ([2]; 50 μM, compared to vehicle): 527±67%

CCCOc1ccc2[nH]cc(C3=CCNCC3)c2n1 [CP 94253, reference compound]
timing in the peak procedure [3]: no effect on timing in the peak procedure
distance traveled ([4]; 0.5 mg/kg (FIG. 7)): did not decrease significantly the distance traveled
locomotor activity ([5]; 0.5 mg/kg (FIG. 7)): no effect on the locomotor activity

C[C@H](N)Cc1ccccc1 [d-amphetamine]
relative response rate curve in peak trials ([6]; 4 mg/kg, 30 min before session (FIG. 1C)): does not peak as high as the lower dose and the curve is flatter
relative response rate curve in peak trials ([6]; 1 and 2 mg/kg, 30 min before session, relative to saline (FIGS. 1A, 1B)): higher peak in the curve followed by a rapid decrease
total distance traveled ([4]; 4 mg/kg i.p., 40 min session, saline 18386±6387 (FIG. 4)): 5966±1938 cm
total distance traveled ([5]; 4 mg/kg i.p., 40 min session, saline 3116±338 (FIG. 4)): 11657±2370 cm
response rate ([7]; 2 mg/kg i.p.): significantly increased response rate
response rate ([7]; 4 mg/kg i.p., wild-type vs 1BKO): significantly decreased response rate in wild-types compared to 1BKO mice
response rate ([7]; 8 mg/kg i.p.): decreased response rate
number of reinforcements ([7]; 2 and 8 mg/kg i.p. vs vehicle (FIG. 12A)): significantly decreased the number of reinforcements
number of reinforcements ([8]; 2, 4 or 8 mg/kg i.p. (FIG. 12A)): no significant effect on number of reinforcements
response rate ([8]; 2, 4 or 8 mg/kg i.p. (FIG. 12B)): not statistically significant at any dose
hyperactivity / locomotor activity in Cm mutant mice [9]: normalizes the hyperactivity

COC(=O)C(c1ccccc1)C1CCCCN1 (stereo not shown) [methylphenidate]
hyperactivity / locomotor activity in Cm mutant mice [9]: increases locomotor activity in a dose-dependent manner
